# Results: patent publication US12133855B2, “Lipid-like nanocomplexes and uses thereof” (Trustees of Tufts College, priority 2018, dated 2024)
# Columns and labels:
# Type in all cases: cell-based
# [1] = test system: HeLa-DsRed cells; assay: Internalization mechanism study with endocytosis inhibitors; details: [lipidoid]=6.6 μg mL^−1, [(−30)GFP-Cre]=100 nM; 6 h
# From the text: In this context, the internalization mechanism of the (−30)GFP-Cre/LNPs complexes was studied at first, by introducing different endocytosis inhibitors, i.e., sucrose (clathrin-mediated endocytosis inhibitor), methyl-β-cyclodextrin (M-β-CD, cholesterol-depleting agent), dynasore (dynamin II inhibitor) and nystatin (caveolin-mediated endocytosis inhibitor), following our previously reported procedures. […] Comparing to other combinatorial library studies, it is clear that even loaded with same cargoes and tested against same cell line, different lipidoids with different chemical structures could be internalized through very distinct pathways. Next, the genome-editing efficiencies of (−30)GFP-Cre/LNPs were determined by flow cytometry after 24 h of incubation (with 8 h of (−30)GFP-Cre/LNPs complex exposure). Three different concentrations of protein/lipidoid complexes (25 nM/1.7 μg mL^−1, 50 nM/3.4 μg mL^−1, and 100 nM/6.6 μg mL^−1) were tested for each lipidoid nanoparticle. […] For example, the DsRed^+ cells were recorded as 10.5%/24.9%/88.9%, 13.5%/55.4%/88.8%, and 27.7%/47.8%/94.7% for (−30)GFP-Cre loaded 75-OCholB, 76-OCholB and 77-OCholB, respectively, at the protein concentration of 25, 50 and 100 nM. […] Then, the cytotoxicity profiles of (−30)GFP-Cre/LNPs, (−30)GFP-Cre/Lpf2k and naked (−30)GFP-Cre at different concentrations against HeLa-DsRed cells (8 h of exposure; (−30)GFP-Cre/LNPs=25 nM/1.7 μg mL^−1, 50 nM/3.4 μg mL^−1, and 100 nM/6.6 μg mL^−1) are measured using MTT assay after 24 h of incubation. […] For (−30)GFP-Cre/75-OCholB treated cells, the viabilities were determined to be 95.5%, 91.8% and 83.1%, at the protein concentration of 25, 50 and 100 nM, respectively; the numbers for (−30)GFP-Cre/76-OCholB and (−30)GFP-Cre/77-OCholB are 97.8%/98.2%/97.2 and 100.9%/96.6%/98.6%. […] Meanwhile, the morphology changes of HeLa-DsRed cell treated with different nanoparticle formulations were studied and the results are shown in FIG. 15E. […]
# [2] = test system: HeLa cells; assay: MTT cytotoxicity of mRNA-loaded nanoparticles; details: for cell morphology (bright field images): 24 h of exposure; for cell viability: GFP mRNA loaded, lipidoid/mRNA=10/1, [mRNA]=0.86 μg mL^−1, 24 h
# Description: All experiments were performed in quadruplicate.
# Next, the MTT assay was conducted to examine the cytotoxicity of mRNA-loaded nanoparticles against HeLa cells.
# [3] = test system: HeLa-DsRed cells; assay: Cre mRNA delivery (DsRed+ cells); details: lipidoid/mRNA=10/1, [mRNA]=0.86 μg mL^−1, 24 h
# Description: Next, the possibility of using OCholB LNPs to deliver mRNA for genome editing (Cre-loxP and CRISPR/Cas9 systems) purposes was examined. First, Cre mRNA was complexed with OCholB LNPs and tested against HeLa-DsRed cells. The HeLa-DsRed cells express red fluorescent protein, DsRed, only upon Cre protein-mediated recombination. After 24 h of incubation with mRNA/LNPs (lipidoid/mRNA=10/1; [mRNA]=0.86 μg mL^−1), the DsRed^+ cell portions were determined by flow cytometry. […] Then the Cas9 mRNA that expresses a version of Streptococcus pyogenes SF370 Cas9 protein with an N and C terminal nuclear localization signal (NLS) were loaded into LNPs, along with single-guide RNA (sgRNA) that targets a sequence on GFP gene. GFP-HEK cells which steadily express GFP proteins were used a cell model in this case. GFP-cells, indicating a successful Cas9-mediated knockdown of GFP expression, were analyzed using flow cytometry. […] This was also found to be applicable to protein delivery in our previous studies.
# In this context, two strategies were tested, i.e., synthesizing new OCholB-tailed lipidoids with single tail rather than full substitution, and adding helper lipids (phospholipids) into fully substituted OCholB LNPs. Single-tailed lipidoids, 75-OCholB-1, 76-OCholB-1 and […] at first following similar protocols as described before and characterized by ESI-MS ([75-OCholB-1+H]^+, 736.55; [76-OCholB-1+H]^+, 734.64; [77-OCholB-1+H]^+, 748.73). Nanoparticles were than fabricated using the same sonication/vortex procedures and the obtained LNPs were measured by DLS (75-OCholB-1, <Dh>=302.6 nm, μ2/I^2=0.30; 76-OCholB-1, <Dh>=294.5 nm, μ2/I^2=0.30; 77-OCholB-1, <Dh>=254.2 nm, μ2/I^2=0.33). […] 69.4%, 72.5% and 68.9% of GFP^+ cells were determined for mRNA/75-OCholB-1, mRNA/76-OCholB-1 and mRNA/77-OCholB-1 treated HeLa cells, respectively. Cre mRNA could also be efficiently delivered into HeLa-DsRed cells, as 87.3% (mRNA/75-OCholB-1), 82.8% (mRNA/76-OCholB-1) and 81.5% (mRNA/77-OCholB-1) of cells were determined to be DsRed^+ after 24 h of exposure (FIG. 14G). […]
smiles,measurement,setting,value
CCN(CC)CCN(CCC(=O)OCCSSCCNC(=O)OC1CCC2(C)C(=CCC3C2CCC2(C)C(C(C)CCCC(C)C)CCC32)C1)CCC(=O)OCCSSCCNC(=O)OC1CCC2(C)C(=CCC3C2CCC2(C)C(C(C)CCCC(C)C)CCC32)C1 (stereo not drawn) [Lipidoid 75-OCholB],internalization efficiency with endocytosis inhibitors,[1],significantly suppressed by sucrose and dynasore
same,cell morphology (bright field images),[2],no obvious variations
same,cell viability,[2],84.7%
same,DsRed^+ cells,[3],67.2%
CC(C)CCCC(C)C1CCC2C3CC=C4CC(OC(=O)NCCSSCCOC(=O)CCN(CCC(=O)OCCSSCCNC(=O)OC5CCC6(C)C(=CCC7C6CCC6(C)C(C(C)CCCC(C)C)CCC76)C5)CCN5CCCC5)CCC4(C)C3CCC12C (stereo not drawn) [Lipidoid 76-OCholB],internalization efficiency with endocytosis inhibitors,[1],significantly suppressed by sucrose and dynasore
same,cell morphology (bright field images),[2],no obvious variations
same,cell viability,[2],94.5%
same,DsRed^+ cells,[3],48.7%
CC(C)CCCC(C)C1CCC2C3CC=C4CC(OC(=O)NCCSSCCOC(=O)CCN(CCC(=O)OCCSSCCNC(=O)OC5CCC6(C)C(=CCC7C6CCC6(C)C(C(C)CCCC(C)C)CCC76)C5)CCC5CCCN5C)CCC4(C)C3CCC12C (stereo not drawn) [Lipidoid 77-OCholB],internalization efficiency with endocytosis inhibitors,[1],significantly suppressed by sucrose and dynasore
same,cell morphology (bright field images),[2],no obvious variations
same,cell viability,[2],100.1%
same,DsRed^+ cells,[3],72.8%
